Molecules are shown by their SMILES. Structures can show the parent of a compound that is named as a salt.

human melanin concentrating hormone receptor (MCHR1), sequence (Q99705 whole entry E4Q/A5T): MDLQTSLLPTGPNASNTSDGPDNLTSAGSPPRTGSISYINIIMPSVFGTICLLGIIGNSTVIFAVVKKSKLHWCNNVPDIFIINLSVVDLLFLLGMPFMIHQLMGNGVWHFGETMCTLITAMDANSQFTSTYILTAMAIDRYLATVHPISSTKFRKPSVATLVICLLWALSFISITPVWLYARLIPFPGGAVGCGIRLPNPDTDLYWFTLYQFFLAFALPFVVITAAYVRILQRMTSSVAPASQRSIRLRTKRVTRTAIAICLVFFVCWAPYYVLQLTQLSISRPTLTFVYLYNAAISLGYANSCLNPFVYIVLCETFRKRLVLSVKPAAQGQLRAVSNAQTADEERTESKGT

One test has as its target human melanin concentrating hormone receptor (MCHR1) (Homo sapiens (Human), UniProt Q99705, A5T/E4Q). The test is described as follows: Radioligand binding assay for assessment of MCHR1 activity. To be noted: competition with [Phe13,[125I]Tyr19]-MCH; membranes of HEK-293 cells expressing mutated hMCHR1. How it is done:
Compounds of Formula I were initially characterized in an in vitro binding assay to determine their Ki or ability to antagonize binding of a peptide agonist to the human melanin concentrating hormone receptor (MCHR1). Representative compounds of the present invention had the following Ki values:
Membranes from stably transfected HEK-293 cells expressing a mutated (E4Q, AST) hMCHRI receptor were prepared by dounce homogenization and differential centrifugation. Binding experiments were carried out with 0.5-1.0 ug of membrane protein incubated in a total of 0.2 ml in 25 mM HEPES (pH 7.4) with 10 mM MgCl2, 2 mM EGTA, and 0.1% BSA (Binding Buffer) for 90 min. For competition binding assays, reactions were carried out in the presence of with 0.06-0.1 nM [Phe^13, [^125I]Tyr^19]-MCH and increasing concentrations of unlabeled test molecules. Reactions were terminated by rapid vacuum filtration over 96 well-GFC Unifilter plates pre-coated with 0.075 ml binding buffer containing 1% BSA, and washed 3 times with 0.4 ml of Phospho-buffered Saline (pH 7.4) containing 0.01% TX-100. Filters were dried; 0.05 ml microscint 20 was added to each well and radioactivity was subsequently quantified by scintillation counting on a TOPCOUNT® microplate scintillation counter (Packard). Inhibitory constants were determined by nonlinear least squares analysis using a four parameter logistic equation.
In turn, `COc1cc(-n2ccc(COc3ccccc3)cc2=O)ccc1OCC(C)(C)O` [Example A-6] had a Ki of 2340 nM.
As to `COc1cc(-n2ccc(CSc3ccc(Cl)cc3)cc2=O)ccc1OCC(C)(C)O` [Example A-29], the Ki worked out at 29 nM.
For the molecule `COc1cc(-n2ccc(CNc3ccc(Cl)cc3)cc2=O)ccc1OCC(C)(C)O` [Example A-33], the affinity, expressed as Ki, was 500 nM.
For `COc1cc(-n2ccc(-c3ccc(C(F)(F)F)cc3)cc2=O)ccc1OCC(C)(C)O` [Example B-2], the Ki amounted to 7 nM.
Turning to `COc1cc(-n2ccc(-c3ccc(OC(F)(F)F)cc3)cc2=O)ccc1OCCO` [Example C-1], the Ki was determined as 3 nM.
In turn, `COc1cc(-n2ccc(SCc3ccc(Cl)cc3)cc2=O)ccc1OCC(C)(C)O` [Example D-4, 4-(4-Chlorobenzylthio)-1-(4-(2-hydroxy-2-methylpropoxy)-3-methoxyphenyl)pyridin-2(1H)-one] came in with a Ki of 4 nM.

Another test has as its system SPRAGUE DAWLEY® rats. The test is described as follows: Assessment of in vivo MCHR1 activity: weight change in rats given a choice of chow and high fat/high sucrose diet. Details: species or system rat. To be noted: 30 mg/kg p.o. daily for four days. Here is the method: Male SPRAGUE DAWLEY® (CD, Charles River Breeding Laboratory) rats weighing approximately 240 grams were placed in individual plastic cages with ALPHADRI® bedding. The room was maintained at 72° F. and 50% humidity, and a 12/12 light dark cycle with lights out at 1600 hours. The rats were conditioned for 5 days prior to the start of the study to having a choice of foods.
Baseline body weight was measured prior to drug treatment on day 0 of the study. Baseline food consumption was the average of the 3 days prior to the first drug treatment. Drug was administered daily p.o. at 2.0 ml/kg at 1500 hours beginning on day 0 and continuing daily through day 4 as a suspension in 0.5% methyl cellulose, 0.1% Tween 80 in water at 3.0, 10 and 30 mg/kg p.o. All data were evaluated using ANOVA and Fishers PLSD statistics.
As to `COc1cc(-n2ccc(COc3ccc(Cl)cc3)cc2=O)ccc1OCC(C)(C)OC(=O)CN` [Example P-1, 1-(4-(4-((4-Chlorophenoxy)methyl)-2-oxopyridin-1(2H)-yl)-2-methoxyphenoxy)-2-methylpropan-2-yl 2-aminoacetate hydrochloride], the “% Weight change versus Control after daily Administration of drug at 30 mg/kg for four days” value was determined as 3.4%.
Consider `COc1cc(-n2ccc(OCc3ccc(Cl)cc3)cc2=O)ccc1OCC(C)(C)OC(=O)CN` [Example P-3], for which the “% Weight change versus Control after daily Administration of drug at 30 mg/kg for four days” value is on record as 6.1%.

Values taken from patent publication US8563583B2, “Pyridone analogs useful as melanin concentrating hormone receptor-1 antagonists” (Bristol-Myers Squibb Company, priority 2009, dated 2013).
